From ChEMBL document CHEMBL4477261, “Design, synthesis and evaluation of the multidrug resistance-reversing activity of pyridine acid esters of podophyllotoxin in human leukemia cells” (Bioorg Med Chem Lett, 2016)
Where a name gives a salt, the structure may show the parent alone.

Columns and labels:
K562/Adr = assay: Antiproliferative activity against human K562/ADR cells after 72 hrs by CCK8 assay; format: functional, cell-based
K562 [1] = assay: Antiproliferative activity against human K562 cells after 72 hrs by CCK8 assay; format: functional, cell-based; conditions: K562, 72 h
K562 [2] = assay: Resistance factor, ratio of IC50 for human K562/ADR cells to IC50 for human K562 cells; format: functional

| Compound | IC50 (K562/Adr) | IC50 (K562 [1]) | Ratio IC50 (K562 [2]) |
| --- | --- | --- | --- |
| COc1cc([C@@H]2c3cc4c(cc3[C@H](OC(=O)c3ccncc3)[C@H]3COC(=O)[C@H]23)OCO4)cc(OC)c1OC [4-O-PODOPHYLLOTOXINYL-ISONICOTINATE] | 48 nM | 11 nM | 4.363 |
| COc1cc([C@@H]2c3cc4c(cc3[C@H](OC(=O)c3cccnc3OC)[C@H]3COC(=O)[C@H]23)OCO4)cc(OC)c1OC | 145 nM | 47 nM | 3.085 |
| COc1cccc2c1C(=O)c1c(O)c3c(c(O)c1C2=O)C[C@@](O)(C(=O)CO)C[C@@H]3O[C@H]1C[C@H](N)[C@H](O)[C@H](C)O1 [DOXORUBICIN HYDROCHLORIDE] | 18800 nM | 220 nM | – |
